{"source": "ChEMBL document CHEMBL5113452", "about": "“Synthesis and biological evaluation of hybrids from optically active ring-opened 3-N-butylphthalide derivatives and 4-fluro-edaravone as potential anti-acute ischemic stroke agents” (Bioorg Med Chem, 2022)", "key": {"Rattus norvegicus [1]": {"test_system": "Rattus norvegicus", "assay": "Neuroprotective activity against transient middle cerebral artery occlusion induced ischemia stroke Sprague-Dawley rat model assessed as increase in neuro-fucntional score at 4.53 mg/kg, iv and measured after 24 hrs by longa's method", "assay_type": "functional, organism-based"}, "Rattus norvegicus [2]": {"test_system": "Rattus norvegicus", "assay": "Neuroprotective activity against transient middle cerebral artery occlusion induced ischemia stroke Sprague-Dawley rat model assessed as increase in neuro-fucntional score at 4.53 mg/kg, iv and measured after 24 hrs in presence of S-APB by longa's method", "assay_type": "functional, organism-based"}, "Rattus norvegicus [3]": {"test_system": "Rattus norvegicus", "assay": "Neuroprotective activity against transient middle cerebral artery occlusion induced ischemia stroke Sprague-Dawley rat model assessed as increase in neuro-fucntional score at 4.10 mg/kg, iv and measured after 24 hrs in presence of NBP by longa's method", "assay_type": "functional, organism-based", "conditions": "dose 4.1 mg/kg"}, "[4]": {"assay": "Toxicity in transient middle cerebral artery occlusion induced ischemia stroke Sprague-Dawley rat model assessed as change in body weight at 4.53 mg/kg, iv and measured after 24 hrs", "assay_type": "organism-based", "conditions": "in vivo"}, "[5]": {"assay": "Toxicity in transient middle cerebral artery occlusion induced ischemia stroke Sprague-Dawley rat model assessed as change in body weight at 4.53 mg/kg, iv and measured after 24 hrs in presence of S-APB", "assay_type": "organism-based", "conditions": "in vivo"}, "[6]": {"assay": "Toxicity in transient middle cerebral artery occlusion induced ischemia stroke Sprague-Dawley rat model assessed as change in body weight at 4.10 mg/kg, iv and measured after 24 hrs in presence of NBP", "assay_type": "organism-based", "conditions": "in vivo, 4.1 mg/kg"}, "Rattus norvegicus [7]": {"test_system": "Rattus norvegicus", "assay": "Neuroprotective activity against transient middle cerebral artery occlusion induced cerebral infraction Sprague-Dawley rat model assessed as decrease in cerebral infraction volume at 4.53 mg/kg, iv and measured after 24 hrs by TTC staining based assay", "assay_type": "functional", "set-up": "scale not given: the % may be the effect or the level left"}, "Rattus norvegicus [8]": {"test_system": "Rattus norvegicus", "assay": "Neuroprotective activity against transient middle cerebral artery occlusion induced cerebral infraction Sprague-Dawley rat model assessed as decrease in cerebral infraction volume at 4.53 mg/kg, iv and measured after 24 hrs in presence of S-APB by TTC staining based assay", "assay_type": "functional", "set-up": "scale not given: the % may be the effect or the level left"}, "Rattus norvegicus [9]": {"test_system": "Rattus norvegicus", "assay": "Neuroprotective activity against transient middle cerebral artery occlusion induced cerebral infraction Sprague-Dawley rat model assessed as decrease in cerebral infraction volume at 4.10 mg/kg, iv and measured after 24 hrs in presence of NBP by TTC staining based assay", "assay_type": "functional", "set-up": "scale not given: the % may be the effect or the level left", "conditions": "dose 4.1 mg/kg"}, "Rattus norvegicus [10]": {"test_system": "Rattus norvegicus", "assay": "Neuroprotective activity against transient middle cerebral artery occlusion induced cerebral infraction Sprague-Dawley rat model assessed as decrease in brain edema at 4.53 mg/kg, iv and measured after 24 hrs in presence of […]", "assay_type": "functional, organism-based"}, "Rattus norvegicus [11]": {"test_system": "Rattus norvegicus", "assay": "Neuroprotective activity against transient middle cerebral artery occlusion induced cerebral infraction Sprague-Dawley rat model assessed as decrease in brain edema at 4.10 mg/kg, iv and measured after 24 hrs in presence of NBP", "assay_type": "functional, organism-based", "conditions": "dose 4.1 mg/kg"}, "[12]": {"assay": "Elimination rate constant in Sprague-Dawley rat plasma at 4.53 mg/kg, iv and measured upto 24 hrs by LC-MS/MS analysis", "assay_type": "ADME, organism-based"}, "[13]": {"assay": "Half life in Sprague-Dawley rat plasma at 4.53 mg/kg, iv and measured upto 24 hrs by LC-MS/MS analysis", "assay_type": "ADME, organism-based"}, "[14]": {"assay": "Cmax in Sprague-Dawley rat plasma at 4.53 mg/kg, iv and measured upto 24 hrs by LC-MS/MS analysis", "assay_type": "ADME, organism-based", "set-up": "dose 4.53 mg/kg, time < 24 hrs, route iv"}, "[15]": {"assay": "C0 in Sprague-Dawley rat plasma at 4.53 mg/kg, iv and measured upto 24 hrs by LC-MS/MS analysis", "assay_type": "ADME, organism-based"}, "[16]": {"assay": "AUC (0-t) in Sprague-Dawley rat plasma at 4.53 mg/kg, iv and measured upto 24 hrs by LC-MS/MS analysis", "assay_type": "ADME, organism-based", "set-up": "dose 4.53 mg/kg, time < 24 hrs, route iv"}, "[17]": {"assay": "AUC (0-infinity) in Sprague-Dawley rat plasma at 4.53 mg/kg, iv and measured upto 24 hrs by LC-MS/MS analysis", "assay_type": "ADME, organism-based", "set-up": "time < 24 hrs, dose 4.53 mg/kg, route iv"}, "[18]": {"assay": "AUMC (0-t) in Sprague-Dawley rat plasma at 4.53 mg/kg, iv and measured upto 24 hrs by LC-MS/MS analysis", "assay_type": "ADME, organism-based", "conditions": "in vivo"}, "[19]": {"assay": "AUMC (0-infinity) in Sprague-Dawley rat plasma at 4.53 mg/kg, iv and measured upto 24 hrs by LC-MS/MS analysis", "assay_type": "ADME, organism-based", "conditions": "in vivo"}, "[20]": {"assay": "Clearance in Sprague-Dawley rat plasma at 4.53 mg/kg, iv and measured upto 24 hrs by LC-MS/MS analysis", "assay_type": "ADME, organism-based"}, "[21]": {"assay": "MRT in Sprague-Dawley rat plasma at 4.53 mg/kg, iv and measured upto 24 hrs by LC-MS/MS analysis", "assay_type": "ADME, organism-based"}, "[22]": {"assay": "Volume of distribution at steady state in Sprague-Dawley rat plasma at 4.53 mg/kg, iv and measured upto 24 hrs by LC-MS/MS analysis", "assay_type": "ADME, organism-based", "conditions": "read-out: Vdss"}, "[23]": {"assay": "Elimination rate constant in Sprague-Dawley rat plasma at 4.53 mg/kg, iv and measured upto 24 hrs in presence of S-NBP by LC-MS/MS analysis", "assay_type": "ADME, organism-based"}, "[24]": {"assay": "Half life in Sprague-Dawley rat plasma at 4.53 mg/kg, iv and measured upto 24 hrs in presence of S-NBP by LC-MS/MS analysis", "assay_type": "ADME, organism-based"}, "[25]": {"assay": "Cmax in Sprague-Dawley rat plasma at 4.53 mg/kg, iv and measured upto 24 hrs in presence of S-NBP by LC-MS/MS analysis", "assay_type": "ADME, organism-based", "set-up": "time < 24 hrs, dose 4.53 mg/kg, route iv"}, "[26]": {"assay": "C0 in Sprague-Dawley rat plasma at 4.53 mg/kg, iv and measured upto 24 hrs in presence of S-NBP by LC-MS/MS analysis", "assay_type": "ADME, organism-based"}, "[27]": {"assay": "AUC (0-t) in Sprague-Dawley rat plasma at 4.53 mg/kg, iv and measured upto 24 hrs in presence of S-NBP by LC-MS/MS analysis", "assay_type": "ADME, organism-based", "set-up": "time < 24 hrs, dose 4.53 mg/kg, route iv"}, "[28]": {"assay": "AUC (0-infinity) in Sprague-Dawley rat plasma at 4.53 mg/kg, iv and measured upto 24 hrs in presence of S-NBP by LC-MS/MS analysis", "assay_type": "ADME, organism-based", "set-up": "time < 24 hrs, dose 4.53 mg/kg, route iv"}, "[29]": {"assay": "AUMC (0-t) in Sprague-Dawley rat plasma at 4.53 mg/kg, iv and measured upto 24 hrs in presence of S-NBP by LC-MS/MS analysis", "assay_type": "ADME, organism-based", "conditions": "in vivo"}, "[30]": {"assay": "AUMC (0-infinity) in Sprague-Dawley rat plasma at 4.53 mg/kg, iv and measured upto 24 hrs in presence of S-NBP by LC-MS/MS analysis", "assay_type": "ADME, organism-based", "conditions": "in vivo"}, "[31]": {"assay": "Clearance in Sprague-Dawley rat plasma at 4.53 mg/kg, iv and measured upto 24 hrs in presence of S-NBP by LC-MS/MS analysis", "assay_type": "ADME, organism-based"}, "[32]": {"assay": "MRT in Sprague-Dawley rat plasma at 4.53 mg/kg, iv and measured upto 24 hrs in presence of S-NBP by LC-MS/MS analysis", "assay_type": "ADME, organism-based"}, "[33]": {"assay": "Volume of distribution at steady state in Sprague-Dawley rat plasma at 4.53 mg/kg, iv and measured upto 24 hrs in presence of S-NBP by LC-MS/MS analysis", "assay_type": "ADME, organism-based", "conditions": "read-out: Vdss"}}, "note": "Activity calls are given as the source filed them. The calls are words filed in the database; no cut-off is given here."}
{"smiles": "CC1=NN(c2ccc(F)cc2)C(=O)C1", "values": [{"measurement": "Activity", "setting": "Rattus norvegicus [1]", "result": "Active"}, {"measurement": "Activity", "setting": "Rattus norvegicus [2]", "result": "Active"}, {"measurement": "Activity", "setting": "Rattus norvegicus [3]", "result": "Active"}, {"measurement": "Activity", "setting": "[4]", "result": "Non-Toxic"}, {"measurement": "Activity", "setting": "[5]", "result": "Non-Toxic"}, {"measurement": "Activity", "setting": "[6]", "result": "Non-Toxic"}, {"measurement": "Activity", "setting": "Rattus norvegicus [7]", "result": 32.46, "unit": "%"}, {"measurement": "Activity", "setting": "Rattus norvegicus [8]", "result": 68.37, "unit": "%"}, {"measurement": "Activity", "setting": "Rattus norvegicus [9]", "result": 57.7, "unit": "%"}, {"measurement": "Activity", "setting": "Rattus norvegicus [10]", "result": "Active"}, {"measurement": "Activity", "setting": "Rattus norvegicus [11]", "result": "Active"}, {"measurement": "k el at 24 h", "setting": "[12]", "result": 0.000171, "unit": "s⁻¹"}, {"measurement": "half-life", "setting": "[13]", "result": 1.14, "unit": "h"}, {"measurement": "Cmax", "setting": "[14]", "result": 2960, "unit": "ng/mL"}, {"measurement": "C0 at 24 h", "setting": "[15]", "result": 4910, "unit": "ng/mL"}, {"measurement": "AUC(0-t) at 24 h", "setting": "[16]", "result": 1350, "unit": "ng·h/mL"}, {"measurement": "AUC(0-inf)", "setting": "[17]", "result": 1360, "unit": "ng·h/mL"}, {"measurement": "AUMCt", "setting": "[18]", "result": 903, "unit": "hr.hr.ng/ml"}, {"measurement": "AUMC", "setting": "[19]", "result": 982, "unit": "hr.hr.ng/ml"}, {"measurement": "clearance", "setting": "[20]", "result": 55.9, "unit": "mL/min/kg"}, {"measurement": "MRT", "setting": "[21]", "result": 0.717, "unit": "h"}, {"measurement": "Vd", "setting": "[22]", "result": 2.39, "unit": "L/kg"}, {"measurement": "k el at 24 h", "setting": "[23]", "result": "3.75e-05", "unit": "s⁻¹"}, {"measurement": "half-life", "setting": "[24]", "result": 5.16, "unit": "h"}, {"measurement": "Cmax", "setting": "[25]", "result": 6100, "unit": "ng/mL"}, {"measurement": "C0 at 24 h", "setting": "[26]", "result": 12400, "unit": "ng/mL"}, {"measurement": "AUC(0-t) at 24 h", "setting": "[27]", "result": 2750, "unit": "ng·h/mL"}, {"measurement": "AUC(0-inf)", "setting": "[28]", "result": 2780, "unit": "ng·h/mL"}, {"measurement": "AUMCt", "setting": "[29]", "result": 4690, "unit": "hr.hr.ng/ml"}, {"measurement": "AUMC", "setting": "[30]", "result": 5830, "unit": "hr.hr.ng/ml"}, {"measurement": "clearance", "setting": "[31]", "result": 27.4, "unit": "mL/min/kg"}, {"measurement": "MRT", "setting": "[32]", "result": 2.1, "unit": "h"}, {"measurement": "Vd", "setting": "[33]", "result": 3.45, "unit": "L/kg"}]}
